Tested on: SR-786 tumor cells (SR786 xenograft ALCL model)
Assay: In vivo tumor efficacy model: SR786 xenograft ALCL model, SGN35 and MLN8237 alone or in combination
Design: species or system CB17 SCID female mice
Conditions: for average tumor volume day 15 / average tumor volume day 21: in mm³
Protocol: SR-786 (4.0×10^6) tumor cells in RPMI-1640 media were aseptically injected into the subcutaneous space in the right dorsal flank of CB17 SCID female mice (Taconic Farms, Inc) using a 26 G 5/8 needle.
Brentuximab vedotin (SGN35), one vial (Seattle Genetics) was reconstituted in 10.5 ml sterile water to give a stock solution at 4.76 mg/ml concentration. The stock solution was formulated in 0.9% saline to reach the desired concentration and administered by intraperitoneal injection (IP) q4Dx21 days at 0.3 mg/kg and 0.4 mg/kg.
MLN8237 was formulated in 10% hydroxypropyl-beta-cyclodextrin and 1% sodium bicarbonate (10% HPbCD+1% NaHCO3) and administered by oral injection (1 cc syringe, 20-22 gauge) on QD schedule at 10 mg/kg and 20 mg/kg for 21 days. MLN8237 as used in the experimental section refers to alisertib sodium salt and the amount referenced is the amount of alisertib used.
Tumors were measured twice weekly using a vernier caliper. Tumor volumes were calculated using standard procedures (0.5×[…]). When the tumors reached a volume of approximately 200 mm^3 (SR-786), mice were randomized into 6-8 groups as described in the tables below, and injected with vehicle, MLN8237 or SGN35 or the combination of MLN8237 with SGN35, at various doses as described below in Tables 1 and 2. Tumor size and body weight were measured approximately twice a week for the duration of the study. Mice were euthanized when their tumor volume reached 10% of their body weight, or when the average tumor volume of a treatment or control group reached approximately 2000 mm^3. Tumor growth continued to be monitored after the dosing period in this study. Average tumor volume is reported as a function of time for selected groups in FIG. 1A and FIG. 1B.
The synergy analysis is based on the tumor volume data from day 0 to 21. Volume measurements below 25 cubic mm are excluded from the analysis because very low volumes cannot be measured accurately. The remaining measurements are log transformed and fit to a simple linear model with the measurement day as a covariate. The data are fit separately for the different animals to yield an estimated tumor growth rate for each animal in each treatment group. Based on the growth rates, the synergy score for the combination of agents A and B is defined as 100*(mean(μAB)−mean(μA)−mean(μB)+mean(μctl))/mean(μctl): where μAB, μA, μB, and μctl are the mean tumor growth rates for animals in the combination group, the A group, the B group, and the control group, respectively. The standard error of the synergy score is computed based on the variation in the growth rates among the animals. […] If the P-value is above 0.05, then the combination is considered to be additive. If the P-value is below 0.05, and the synergy score is less than zero, then the combination is considered to be synergistic. […] Otherwise, the combination is classified as antagonistic. Results

Row | Compound | average tumor volume day 15 (10 mg/kg MLN8237, QD, P.O) | average tumor volume day 21 (10 mg/kg MLN8237, QD, P.O) | average tumor volume day 15 (20 mg/kg MLN8237, QD, P.O) | average tumor volume day 21 (20 mg/kg MLN8237, QD, P.O) | tumor growth compared to the control vehicle group (single agent MLN8237 P.O 10 mg/kg and 20 mg/kg QD) | average tumor volume day 15 (0.3 mg/kg SGN35, Q4d, I.P) | average tumor volume day 21 (0.3 mg/kg SGN35, Q4d, I.P) | average tumor volume day 15 (0.4 mg/kg SGN35, Q4d, I.P) | average tumor volume day 21 (0.4 mg/kg SGN35, Q4d, I.P) | tumor growth compared to the control vehicle group (single agent SGN35 0.3 and 0.4 mg/kg I.P Q4d)
1 | COc1cc(Nc2ncc3c(n2)-c2ccc(Cl)cc2C(c2c(F)cccc2OC)=NC3)ccc1C(=O)O [MLN8237, 4-{[9-chloro-7-(2-fluoro-6-methoxyphenyl)-5H-pyrimido[5,4-d][2]benzazepin-2-yl]amino}-2-methoxybenzoic acid] | 625.4 | 1121 | 387.1 | 576.4 | inhibited tumor growth | – | – | – | – | –
2 | SGN35 | – | – | – | – | – | 1136.1 | 1676 | 491.3 | 553.8 | inhibited tumor growth

Source: patent US10335494B2, “Combination of aurora kinase inhibitors and anti-CD30 antibodies” (Millennium Pharmaceuticals, Inc., priority 2013, dated 2019)
